From the supplement of paper PMC10307832

Legend:
Experiment in all cases: relative viability (nuclei count vs DMSO), 5 days (fraction); higher = more cells survive
[1] = compound: CO[C@@H]1[C@H](N(C)C(=O)c2ccccc2)C[C@H]2O[C@]1(C)n1c3ccccc3c3c4c(c5c6ccccc6n2c5c31)C(=O)NC4 [Midostaurin] + CS(=O)(=O)CCNCc1ccc(-c2ccc3ncnc(Nc4ccc(OCc5cccc(F)c5)c(Cl)c4)c3c2)o1 [Lapatinib] (partner 2 µM)
Outline: (§1)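 Relative viability equals treated-well nuclei counts divided by vehicle-well nuclei counts. Counts came from 4× images of lung cancer cell lines grown in 1536-well plates for 5 days after pin-tool dosing on the day after seeding. Dosing used one drug alone or a fixed anchor-drug dose plus five library-drug doses (not always all listed) in √10 steps, and values are medians of duplicate plates.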

[2] = compound: CO[C@@H]1[C@H](N(C)C(=O)c2ccccc2)C[C@H]2O[C@]1(C)n1c3ccccc3c3c4c(c5c6ccccc6n2c5c31)C(=O)NC4 [Midostaurin] + O=C(c1cc(Cc2n[nH]c(=O)c3ccccc23)ccc1F)N1CCN(C(=O)C2CC2)CC1 [Olaparib] (partner 8 µM)
Outline: as §1

[3] = compound: COc1cc(-c2nn([C@H]3CC[C@H](N4CCN(C(C)=O)CC4)CC3)c3ncnc(N)c23)ccc1NC(=O)c1cc2ccccc2n1C + COc1cccc2cc(-c3nc([C@H]4CC[C@H](C(=O)O)CC4)n4ncnc(N)c34)[nH]c12 [OSI-027] (partner 0.5 µM)
Outline: as §1

[4] = compound: COc1cc(-c2nn([C@H]3CC[C@H](N4CCN(C(C)=O)CC4)CC3)c3ncnc(N)c23)ccc1NC(=O)c1cc2ccccc2n1C + Cc1cc(Nc2cc(N3CCN(C)CC3)nc(Sc3ccc(NC(=O)C4CC4)cc3)n2)n[nH]1 [Tozasertib] (partner 0.1 µM)
Outline: as §1

[5] = compound: COc1cc(-c2nn([C@H]3CC[C@H](N4CCN(C(C)=O)CC4)CC3)c3ncnc(N)c23)ccc1NC(=O)c1cc2ccccc2n1C + Nc1ncn([C@H]2C[C@H](O)[C@@H](CO)O2)c(=O)n1 [Decitabine] (partner 2 µM)
Outline: as §1

| Cell Line | relative viability ([1]; first compound 0.01 µM) | relative viability ([1]; first compound 0.03162 µM) | relative viability ([1]; first compound 0.1 µM) | relative viability ([1]; first compound 0.3162 µM) | relative viability ([2]; first compound 0.01 µM) | relative viability ([2]; first compound 0.03162 µM) | relative viability ([2]; first compound 0.1 µM) | relative viability ([2]; first compound 0.3162 µM) | relative viability ([3]; first compound 0.0128 µM) | relative viability ([3]; first compound 0.04048 µM) | relative viability ([3]; first compound 0.128 µM) | relative viability ([3]; first compound 1.28 µM) | relative viability ([4]; first compound 0.0128 µM) | relative viability ([4]; first compound 0.04048 µM) | relative viability ([4]; first compound 0.128 µM) | relative viability ([4]; first compound 1.28 µM) | relative viability ([5]; first compound 0.0128 µM) | relative viability ([5]; first compound 0.04048 µM) | relative viability ([5]; first compound 0.128 µM) | relative viability ([5]; first compound 1.28 µM) |
| --- | --- | --- | --- | --- | --- | --- | --- | --- | --- | --- | --- | --- | --- | --- | --- | --- | --- | --- | --- | --- |
| HCC-44 | 1.01 | 0.985 | 1.04 | 1.13 | 0.999 | 0.957 | 0.983 | 1 | 0.477 | 0.528 | 0.549 | 0.484 | 0.707 | 1.29 | 0.796 | 0.819 | 1.13 | 0.979 | 0.846 | 1.04 |
| HCC-78 | 0.805 | 0.697 | 0.721 | 0.316 | 0.836 | 0.753 | 0.677 | 0.511 | 0.341 | 0.371 | 0.356 | 0.26 | 0.456 | 0.368 | 0.742 | 0.269 | 0.674 | 0.689 | 0.701 | 0.539 |
| HCC-366 | 1.01 | 1.04 | 1.04 | 1.13 | 0.336 | 0.358 | 0.302 | 0.117 | 0.803 | 0.347 | 0.882 | 0.772 | 0.114 | 0.0717 | 0.0637 | 0.0555 | 0.379 | 0.344 | 0.351 | 0.306 |
| HCC-827 | 0.198 | 0.225 | 0.204 | 0.225 | 0.582 | 0.628 | 0.589 | 0.654 | 0.817 | 0.658 | 0.666 | 0.744 | 0.417 | 0.416 | 0.392 | 0.374 | 0.336 | 0.318 | 0.357 | 0.29 |
| HOP-62 | 1.02 | 0.994 | 1.14 | 1.06 | 0.321 | 0.452 | 0.414 | 0.372 | 0.86 | 0.734 | 0.817 | 0.707 | 0.382 | 0.41 | 0.346 | 0.368 | 0.241 | 0.191 | 0.207 | 0.283 |
| IA-LM | 0.886 | 0.579 | 0.984 | 0.551 | 0.746 | 0.653 | 0.748 | 0.881 |  |  |  |  |  |  |  |  |  |  |  |  |
| LC-2-ad | 0.989 | 0.956 | 0.982 | 0.855 | 0.738 | 0.688 | 0.673 | 0.691 | 0.932 | 0.776 | 0.864 | 0.691 | 0.379 | 0.542 | 0.405 | 0.371 | 0.818 | 0.778 | 0.723 | 0.854 |
| LCLC-97TM1 | 0.73 |  | 0.846 | 1.12 | 0.52 | 0.374 | 0.32 | 0.464 | 0.596 | 0.243 | 0.489 | 0.586 | 0.275 | 0.252 | 0.201 | 0.253 | 0.295 | 0.224 | 0.257 | 0.235 |
| LCLC-103H |  |  |  |  | 0.746 | 0.813 | 0.717 | 0.805 | 0.47 | 0.469 | 0.493 | 0.417 | 0.438 | 0.453 | 0.431 | 0.423 | 0.832 | 0.725 | 0.691 | 0.759 |
| NCI-H441 |  |  |  |  | 0.475 | 0.677 | 0.458 | 0.427 | 0.637 | 0.531 | 0.763 | 0.702 | 0.743 | 0.734 | 0.565 | 0.578 | 0.246 | 0.286 | 0.321 | 0.24 |
| NCI-H522 |  |  |  |  | 0.546 | 0.748 | 0.578 | 0.682 | 0.8 | 0.725 | 0.812 | 0.651 | 0.614 | 0.59 | 0.566 | 0.445 | 0.665 | 0.7 | 0.738 | 0.717 |
| NCI-H1299 | 0.959 | 0.93 | 0.871 | 0.883 | 0.919 | 0.942 | 0.985 | 0.924 |  |  |  |  |  |  |  |  |  |  |  |  |
| NCI-H1563 | 0.929 | 0.97 | 0.77 | 0.924 |  |  |  |  | 0.711 | 0.86 | 0.848 | 0.59 |  |  |  |  |  |  |  |  |
| NCI-H1623 |  |  |  |  |  |  |  |  | 0.422 | 0.342 | 0.399 | 0.37 | 0.449 | 0.419 | 0.424 | 0.41 |  |  |  |  |
| NCI-H1648 |  |  |  |  | 1.08 |  |  | 0.767 | 0.27 | 0.257 | 0.274 | 0.276 | 0.381 | 0.514 | 0.469 | 0.3 | 0.595 | 0.447 | 0.482 | 0.452 |
| NCI-H1703 | 1.04 | 1.08 | 1.1 | 0.317 | 0.507 | 0.421 | 0.298 | 0.216 |  |  |  |  |  |  |  |  |  |  |  |  |
| NCI-H1792 | 0.932 | 0.875 | 0.862 | 0.91 | 0.383 | 0.308 | 0.249 | 0.146 | 0.736 | 0.523 | 0.689 | 0.558 |  |  |  |  | 0.566 | 0.504 | 0.532 | 0.598 |
| NCI-H2228 | 0.966 | 1.07 | 1.23 | 0.972 | 0.618 | 0.588 | 0.744 | 0.556 | 0.706 | 0.637 | 0.573 | 0.45 | 0.273 | 0.242 | 0.22 | 0.157 |  |  |  |  |
| NCI-H2342 |  |  |  |  | 0.419 | 0.394 | 0.422 | 0.489 | 0.521 | 0.706 | 0.644 | 0.493 | 0.595 | 0.523 | 0.491 | 0.303 | 0.812 | 0.783 | 0.777 | 0.609 |
| SW 900 |  |  |  |  | 0.826 | 1.08 | 0.852 | 0.575 | 0.536 | 0.588 | 0.497 | 0.356 | 0.665 | 0.539 | 0.402 | 0.343 | 0.524 | 0.381 | 0.507 | 0.52 |
